Counter-ions that a name gives are not always drawn.
How the values were obtained:
cGMP-PDE = cGMP-PDE (Homo sapiens, UniProt O76074); assay: Inhibitory effect on cGMP-PDE; format: biochemical; conditions: PDE IC isolated from human platelets; 3H-cGMP substrate 0.2 mM; pH 8.0; DMSO 2.5%
Procedure: Typically, connective tissue and adventitia were removed and 1-2 units of platelets were suspended in 10 volumes of buffer A (20 mM Tris-HCl, pH 7.5, containing 2 mM magnesium acetate, 1 mM dithiothreitol, and 5 mM Na2EDTA) using a Brinkman polytron. The proteinase inhibitors leupeptin, pepstatin A, and phenylmethyl-sulfonyl fluoride (PMSF) were also included in this buffer (final concentration of 100 nM each). The homogenate was centrifuged at 100,000g for 60 minutes. The supernatant was then removed and filtered through four layers of cheesecloth. The supernatant was applied to a DWAE-Trisacryl M column. The column was washed with several bed volumes of buffer B (20 mM Tris-HCl, pH 7.5, containing 2 mM magnesium acetate, 1 mM dithiothreitol, and proteinase inhibitors) and eluted by two successive linear NaCl gradients (0.05-0.15M, 300 ml total; 0.15-0.40M, 200 ml total). Five milliliter fractions were collected and assayed for cyclic GMP PDE activity.
The concentration of substrate (^3 H-cGMP) was 0.2 mM. Compounds of the present invention were dissolved in dimethyl sulfoxide (DMSO) at a final concentration of 2.5%. This concentration of DMSO inhibited enzyme activity by approximately 10%.

TXA2 synthetase = target: T1, TXA2 synthetase (Rattus norvegicus, UniProt P49430); assay: Inhibitory effect on TXA2 synthetase (TXB2 synthesis in A23187-stimulated heparinized whole blood); format: cell-based, Male Wistar rats; conditions: 37° C, Ca ionophore A23187 30 μM, TXB2 by EIA
T1 construct: whole blood was collected from abdominal aorta; from tissue; host or cells: freshly drawn heparinized whole blood of male Wistar rats
T1 sequence (P49430 1-533): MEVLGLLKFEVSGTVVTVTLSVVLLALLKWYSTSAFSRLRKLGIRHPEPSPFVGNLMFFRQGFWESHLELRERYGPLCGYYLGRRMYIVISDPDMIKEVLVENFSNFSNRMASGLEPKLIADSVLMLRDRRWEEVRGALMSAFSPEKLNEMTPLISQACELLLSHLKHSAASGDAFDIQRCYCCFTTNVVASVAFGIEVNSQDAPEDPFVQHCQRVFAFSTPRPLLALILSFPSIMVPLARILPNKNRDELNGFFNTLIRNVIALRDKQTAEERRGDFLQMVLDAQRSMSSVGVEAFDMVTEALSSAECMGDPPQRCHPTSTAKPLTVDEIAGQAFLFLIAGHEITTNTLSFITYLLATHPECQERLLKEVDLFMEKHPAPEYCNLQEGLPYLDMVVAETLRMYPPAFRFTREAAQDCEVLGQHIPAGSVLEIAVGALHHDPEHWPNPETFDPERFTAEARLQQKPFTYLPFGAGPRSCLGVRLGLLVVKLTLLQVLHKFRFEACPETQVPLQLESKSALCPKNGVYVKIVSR
Procedure: Male Wistar rats were starved overnight. Five hundreds microliter of heparinized (10 U/mL) whole blood was collected from abdominal aorta using polyethylene syringe (needle: 22 or 26G). The blood freshly drawn from animal was preincubated with 5 μL of test compound at 37° C. Five minutes later, 2.5 μL of 6 mM of Ca ionophore A23187 (final concentration of 30 μM) was added into tube, and incubation mixture was further incubated for 15 min. The reaction was terminated by centrifugation of tubes at 12,000 rpm for 2 min. TXB2 content in the supernatant was determined by EIA as follows.
One milliliter of 0.5M glycine-HCl buffer (pH 3.2) was added to 100 μL of sample. The samples were mixed well and centrifuged at 1,700 G for 10 min at 4° C. The extracted supernatant was applied to a SEP-PAK (registered Trade Mark) C18 cartridge (Waters Assoc.). After washing with 10 mL of distilled water followed by 10 mL each of 15% ethanol and petroleum ether, the sample was eluted with 3 mL of ethyl acetate. The ethyl acetate fraction was evaporated to dryness under gentle N2 stream and the residue was dissolved in EIA buffer (final volume of 1 mL) following the addition of 300 μL of 0.01M NaHCO3 -NaOH buffer (pH 10.0). EIA for TXB2 was carried out according to a legend attached to the kit (Chyman Chemical Co., Inc.). Overall recovery of TXB^2 in this extraction procedure was 90%. […]

Row | IC50 (cGMP-PDE) | IC50 (TXA2 synthetase) | Compound
1 | 2400 nM | – | CN(C)c1ccc(CNc2nc(-c3cccnc3)nc3ccccc23)cc1 [3(o), 4-(4-(N,N-dimethylamino)phenylmethyl)amino-2-(3-pyridyl)quinazoline trihydrochloride]
2 | 300 nM | – | c1ccc(CNc2nc(Cn3ccnc3)nc3ccccc23)cc1 [6(b), 4-phenylmethylamino-2-((1-imidazolyl)methyl)quinazoline dihydrochloride]
3 | 135 nM | – | CN(C)S(=O)(=O)c1ccc2nc(-n3ccnc3)nc(NCc3ccccc3)c2c1 [6(j), 6-dimethylaminosulfonyl-4-phenylmethylamino-2-(1-imidazolyl)quinazoline hydrochloride]
4 | 200 nM | – | C(=C\c1nc(NCc2ccccc2)c2ccccc2n1)/c1cccnc1 [Example 7, 4-phenylmethylamino-2-(2-(3-pyridyl)vinyl)quinazoline]
5 | 46 nM | 2400 nM | C#Cc1ccc2nc(-n3ccnc3)nc(NCCOC)c2c1 [Example 18, 6-ethynyl-4-(2-methoxyethyl)amino-2-(1-imidazolyl)quinazoline]

Row | Compound | IC50 (cGMP-PDE) | IC50 (TXA2 synthetase)
6 | C#Cc1ccc2nc(-n3ccnc3)nc(NCc3ccccc3)c2c1 [18(b), 2-(1-imidazolyl)-4-phenylmethylamino-6-ethynylquinazoline dihydrochloride] | 0.53 nM | –

Source: patent US5436233A, “4-aminoquinazoline derivatives” (Ono Pharmaceutical Co., Ltd., priority 1993, dated 1995)
